“Also recorded” adds a separate entry of the source.
What was measured:
[1] = system: Vero Cells; experiment: Formation of NPT 15392 on incubation with Vero cells (HPLC); type: in vitro ADME, African Green Monkey; conditions: 0 hrs.
Text: (§1) | ^a Determined using HPLC

[2] = as above; type: in vitro ADME, African Green Monkey; conditions: monkey, 24 hrs.
Text: as §1

[3] = system: IgM antibody production to sheep red blood cells; experiment: IgM antibody formation in SRBC-immunized Balb/c mice (immunoplaque assay, in vivo); conditions: for Immunomodulating (in vivo) IgM formation (in words): SRBC immunized mice
Protocol: 4. Enhancement of IgM antibody formation in mice immunized with sheep red blood cells (SRBC) (in vivo).
4. NPT 15457 and NPT 15458 and the "active" drug, NPT 15392, were given to Balb/c mice who had been immunized with sheep red blood cells SRBC. Antibody production to SRBC was measured. […] NPT 15392, at the levels studied, produce a 46% increase in IgM production. Higher doses of NPT 15392 will cause less of an increase or decrease over control values. […] This is to be expected since NPT 15458 produces very high levels of NPT 15392 which are most likely inhibitory to IgM formation.
1. Mice are immunized as follows: sheep blood (sheep #23) is received weekly from Hyland Labs. It is aseptically collected in two volumes of Alseviers to one volume of blood.
2. Five-tenths ml of the sheep blood in Alseviers is washed three times in sterile PBS in an IEC clinical centrifuge, setting #4 (2800 rpm) for 10 min. at room temperature.
3. The pellet is resuspended in 1:10 in sterile PBS.
4. A model Z Coulter counter is calibrated according to Coulter Instruction Manual.
5. A […] dilution is needed for a Coulter counter cell count and is obtained by first making a 1:100 dilution in PBS and then diluting this solution 1:10 in isoton. The Coulter counter threshold is adjusted to setting #5.
6. The cell count is determined and the stock solution is diluted to 4×10^7 cells/ml. This final suspension is used for immunization.
7. Each mouse is immunized by i.v. injection into the lateral tail vein (warmed in a 50° C. water bath for veinous dilation) with 0.1 ml SRBC suspension; the final concentration of SRBC's is 4×10^6 per mouse.
1. Mice are treated by i.p. injection on days 0, 1, 2 and 3. A syringe (1 cc) is fitted with a one-half inch, 26 gauge needle. The needle is introduced at a 45° angle along the right side of the linea alba. A 0.2 ml volume is given to both drug and control treated groups.
2. Drug groups are given 0.2 ml of a desired concentration NPT 15392 solution which, for a 20 g mouse, is 5 μg/ml.
1. Spleens are removed aseptically and placed individually in Falcon #2025 tissue culture tubes containing 3 ml MEM. The tubes are then stored on ice.
2. Spleens are homogenized in the same tube with a teflon pestle attached to a G. K. Heller variable speed reversible motor connected with a G. K. Heller GT-21 motor controller setting #6.
3. The homogenization time and action should be uniform from sample to sample.
4. Samples are then filtered through a 100 mesh 40 micron stainless screen into a standard tissue culture tube. The screen is rinsed with 3 ml MEM and the cell suspension is stored on ice.
5. A 1:1000 dilution is made for a Coulter counter cell count and is obtained by first making a 1:100 dilution in PBS followed by a 1:10 dilution in isoton.
6. The cell count is obtained and the stock suspension is diluted to 1×10^7 cells/ml. The Coulter counter threshold is set at 10. Red cells are lysed with three drops of Zap isoton.
Agar plates are removed from regrigerator and allowed to warm to room temperature. They are labeled in triplicate for each experimental group.
2. Agar-filled tubes are removed from the water bath. One-tenth of the 10% SRBC's and 0.1 ml spleen cell suspension are added to each agar tube. The tubes are agitated on a Vortex mixer.
3. The contents of the tubes are poured immediately into agar base plates and swirled until a smooth layer is formed. The plates are placed on a level surface until the agar solidifies.
4. The plates are incubated at 37° C. in a humidified atmosphere of 5% CO2 and 95% air for 90 min.
5. Guinea pig complement (see preparation, section D) is removed from freezer, thawed at room temperature and diluted 1:10 in PBS.
6. Plates are removed from incubator and 1 ml of the diluted complement is added to each plate.
7. Plates are then incubated another 30-45 minutes at 37° C. Plates are then removed from incubator and counted using oblique light.
8. […]

[4] = Formation of NPT 15392 on incubation with liver homogenate (HPLC); type: in vitro ADME; conditions: for % of NPT 15392: 0 hrs.
Text: as §1

[5] = Chemical stability at varying pH, conversion to NPT 15392 (HPLC); type: physicochemical; conditions: for degraded at 3.5 h, 360 µM: 3.5 hours incubation at 37° C., 0.36 μm/ml; for Chemical stability (in words): 37° C., neutral pH
Protocol: Compound (conc.) % of NPT 15392*
*3.5 hours incubation at 37° C., determined using HPLC

[6] = system: HPBL (active E-rosettes); experiment: Enhancement of active E-rosette formation in HPBL (in vitro); type: cell-based, human; conditions: for Immunomodulating (in vitro) Rosette, change: Table 11 summary; for Immunomodulating (in vitro) rosette formation (in words): active rosettes, HPBL
Protocol: 3. Enhancement of active rosette formation (in vitro).
3. As can be noted from Table 7, both NPT 15457 and NPT 15458 are effective in modulating active rosette formation in HPBL. […] In Experiment #2, placebo-treated controls have abnormally high values for active rosettes.
1. Ten to 40 ml of whole blood is drawn from healthy volunteers in heparinized tubes.
2. Lymphocytes are separated from the above blood using Ficoll-hypaque separation techniques.
3. Various concentration of test compound are prepared in RPMI-1640.
4. The concentration of lymphocytes are adjusted to 2×10^6 /ml of RPMI-1640.
5. Lymphocytes are incubated with test compound for 90 minutes at 37° C.
6. Sheep Red Blood Cells (SRBC.s) (one to two weeks old) are washed 3 times with PBS and diluted to a final concentration of 0.5% inj RPMI-1640.
7. Reaction tubes are set up containing the following:
8. The above reactants are centrifuged at 200×g for 5 minutes at room temperature.
9. The sediment is then gently resuspended and a […] sample placed in a hemocytometer.
10. The number of rosettes are then counted using a microscope with any lymphocyte having 3 or more attached red cells being counted as a rosette.

[7] = system: HPBL; experiment: Formation of NPT 15392 on incubation with human peripheral blood lymphocytes (HPLC); type: in vitro ADME; conditions: HPBL, 0 hrs.
Text: as §1

[8] = as above; type: in vitro ADME; conditions: human, peripheral blood lymphocytes
Text: as §1

[9] = Expt 1, 1.8 n moles/kg × 4 i.p., all p ≤ 0.01 vs placebo
[10] = Expt 1, 1.8 n moles/kg × 4 i.p., control 28 ± 2
[11] = Expt 2, .18 n moles/kg × 4 i.p., NPT 15392 and NPT 15458 p ≤ 0.01 vs placebo
[12] = Expt 2, .18 n moles/kg × 4 i.p., control 46 ± 2
[13] = Experiment #1, 3.6 n moles/ml, placebo 9.23 ± 2.9, NPT 15457 and NPT 15458 p ≤ 0.05 versus placebo
[14] = Experiment #2, 0.36 n moles/ml, placebo 34.2 ± 6.6, NPT 15392 and NPT 15458 p ≤ 0.05 versus placebo
[15] = HPBL, 24 hrs., read-out: % of NPT 15392
[16] = Table 11 summary, read-out: Convertible to NPT 15392, Biological: HPBL

Compound	% of NPT 15392 [1] [%]	metabolised at 24 h [2] [%]	# IgM Plaques % of Control [3, 9] [%]	# IgM Plaques (mean ± S.E.) [3, 10]	# IgM Plaques % of Control [3, 11] [%]	# IgM Plaques (mean ± S.E.) [3, 12]	Immunomodulating (in vivo) IgM formation (in words) [3]	Immunomodulating (in vivo) SRPC-IgM, change ([3]; Table 11 summary)	% of NPT 15392 [4] [%]	metabolised at 0.5 h [4] [%]	degraded at 3.5 h, 360 µM ([5]; pH 1.0) [%]	degraded at 3.5 h, 360 µM ([5]; pH 7.0) [%]	degraded at 3.5 h, 360 µM ([5]; pH 9.5) [%]	% Active E-Rosettes (mean ± S.E.) [6, 13] [%]	% Active E-Rosettes (mean ± S.E.) [6, 14] [%]	Immunomodulating (in vitro) Rosette, change [6]	Immunomodulating (in vitro) rosette formation (in words) [6]	% of NPT 15392 [7] [%]	metabolised at 24 h [8, 15] [%]	Chemical stability (in words) [5]	other results
CCCCCC[C@H]([C@H](C)O)n1cnc2c(=O)[nH]cnc21 (relative stereo) [NPT 15392, erythro-9-(2-hydroxy-3-nonyl)-hypoxanthine, reference compound]	100	100	146	41 ± 4	147	68 ± 2	very effective in modulating the production of IgM antibodies and Yes	+46%	100	100	100	100	100	16.2 ± 1.0	15.4 ± 2.9	+78%	able to decrease the high levels of normal values and Yes	100	100	–	Increase in IgM production ([3]; at the levels studied): 46%
CCCCCC[C@H]([C@H](C)OC(=O)CCC(=O)O)n1cnc2c(=O)[nH]cnc21 (relative stereo) [NPT 15457, Erythro-9-(2-Succinoxy-3-Nonyl) Hypoxanthine]	0	0	68	19 ± 3	102	47 ± 3	less than that of NPT 15458; also recorded: Moderate	–	0	14	2	0	8	24.8 ± 6	33.6 ± 2.4	+166%	as active as NPT 15392 in restoring the depressed immunity to normal levels and Yes	0	18.2	have stability	Immunomodulating (in vivo) SRPC-IgM, range ([3]; Table 11 summary, unit not given): 0-60; Chemical conversion to NPT 15392 (in words) ([5]; pH 7.0): No; Chemical conversion to NPT 15392 (in words) ([5]; pH 9.5): basic hydrolysis at pH 9.5 can convert and Yes; metabolised at 24 h [8, 16]: 18%
CCCCCC[C@H]([C@H](C)OC(C)=O)n1cnc2c(=O)[nH]cnc21 (relative stereo) [NPT 15458, erythro-9-(2-Acetoxy-3-Nonyl)-Hypoxanthine]	0	50	28.5	8 ± 1	23.9	11 ± 1	produces an inhibition of IgM formation and very effective in modulating the production of IgM antibodies and Yes	-72%	0	70	8	0	28	19.4 ± 1.0	23.25 ± 1.24	+11%	as active as NPT 15392 in restoring the depressed immunity to normal levels and able to decrease the high levels of normal values and Yes	0	100	have stability	Chemical conversion to NPT 15392 (in words) ([5]; pH 7.0): No; Chemical conversion to NPT 15392 (in words) ([5]; pH 9.5): basic hydrolysis at pH 9.5 can convert and Yes; metabolised at 24 h [8, 16]: 100%
